{"source": "ChEMBL document CHEMBL1201862", "about": "“PubChem BioAssay data set” (2004)", "key": {"[1]": {"biological_target": "Estrogen receptor beta (Homo sapiens, UniProt Q92731)", "sequence (Q92731 whole entry)": "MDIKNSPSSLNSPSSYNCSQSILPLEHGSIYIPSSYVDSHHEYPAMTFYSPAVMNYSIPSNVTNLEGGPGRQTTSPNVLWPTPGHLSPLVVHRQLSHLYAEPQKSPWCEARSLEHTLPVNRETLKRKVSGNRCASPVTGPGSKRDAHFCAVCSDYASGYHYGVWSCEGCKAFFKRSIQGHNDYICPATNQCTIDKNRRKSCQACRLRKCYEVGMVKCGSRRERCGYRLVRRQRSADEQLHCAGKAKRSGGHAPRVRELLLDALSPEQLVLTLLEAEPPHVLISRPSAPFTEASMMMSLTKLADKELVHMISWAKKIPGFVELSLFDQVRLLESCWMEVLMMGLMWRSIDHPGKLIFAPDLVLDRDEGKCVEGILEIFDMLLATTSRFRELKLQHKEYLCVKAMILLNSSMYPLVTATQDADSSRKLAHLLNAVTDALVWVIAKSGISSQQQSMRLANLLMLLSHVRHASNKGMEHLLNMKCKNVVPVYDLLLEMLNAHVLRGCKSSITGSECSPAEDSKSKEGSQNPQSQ", "assay": "ERβ–SRC-3 coactivator interaction inhibitors, confirmation, orthogonal assay, biochemical, ELISA, streptavidin-HRP readout (AID 1060)"}, "[2]": {"biological_target": "T1, Estrogen receptor (Homo sapiens, UniProt P03372)", "T1 sequence (P03372 whole entry)": "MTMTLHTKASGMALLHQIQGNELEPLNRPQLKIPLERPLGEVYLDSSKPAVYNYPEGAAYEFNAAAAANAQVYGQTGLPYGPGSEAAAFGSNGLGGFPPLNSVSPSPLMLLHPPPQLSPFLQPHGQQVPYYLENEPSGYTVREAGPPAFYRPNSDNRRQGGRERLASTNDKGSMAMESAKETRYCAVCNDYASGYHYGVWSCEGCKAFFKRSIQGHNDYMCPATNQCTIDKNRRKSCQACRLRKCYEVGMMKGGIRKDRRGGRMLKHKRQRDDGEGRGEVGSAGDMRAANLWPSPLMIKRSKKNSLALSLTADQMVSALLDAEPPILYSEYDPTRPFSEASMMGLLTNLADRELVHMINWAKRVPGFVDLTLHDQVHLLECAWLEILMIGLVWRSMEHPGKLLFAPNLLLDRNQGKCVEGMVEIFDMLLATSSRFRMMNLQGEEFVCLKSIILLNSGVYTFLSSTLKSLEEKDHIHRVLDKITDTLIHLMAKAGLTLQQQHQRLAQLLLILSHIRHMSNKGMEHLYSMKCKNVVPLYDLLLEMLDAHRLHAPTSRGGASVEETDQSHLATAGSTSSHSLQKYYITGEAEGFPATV"}, "[3]": {"assay": "Luminescence Cell-Based Dose Retest to Confirm Inhibitors of Cancer Stem Cells. [Related pubchem assays (depositor defined):AID2717, AID2721]", "type": "functional, Homo sapiens", "settings": "Homo sapiens"}, "[4]": {"system": "INS1", "assay": "beta cell apoptosis inhibitors, cytokine rescue, dose response, luminescence, retest (AID 449756);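 note: cell death triggered by IL-1 beta plus TNF-alpha plus IFN-gamma mixture; protective hits raise ATP signal compared with cytokine alone wells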", "type": "functional, cell-based", "settings": "Rattus norvegicus"}, "[5]": {"biological_target": "Nonstructural protein 1 (Influenza A virus, UniProt Q194T2)", "sequence (Q194T2 whole entry)": "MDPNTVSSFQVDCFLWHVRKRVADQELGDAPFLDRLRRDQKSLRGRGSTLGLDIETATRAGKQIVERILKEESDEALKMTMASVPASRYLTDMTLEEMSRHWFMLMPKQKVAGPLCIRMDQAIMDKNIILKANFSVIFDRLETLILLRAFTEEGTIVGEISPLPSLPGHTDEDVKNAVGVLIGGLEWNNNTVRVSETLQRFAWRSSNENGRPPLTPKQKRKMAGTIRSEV", "type": "functional, Influenza A virus (A/California/07/2009(H1N1))"}, "[6]": {"biological_target": "T2, Voltage-gated N-type calcium channel alpha-1B subunit/Amyloid beta A4 precursor protein-binding family A member 1 (Homo sapiens, UniProt Q00975+Q02410)", "T2 sequence (Q00975 whole entry)": "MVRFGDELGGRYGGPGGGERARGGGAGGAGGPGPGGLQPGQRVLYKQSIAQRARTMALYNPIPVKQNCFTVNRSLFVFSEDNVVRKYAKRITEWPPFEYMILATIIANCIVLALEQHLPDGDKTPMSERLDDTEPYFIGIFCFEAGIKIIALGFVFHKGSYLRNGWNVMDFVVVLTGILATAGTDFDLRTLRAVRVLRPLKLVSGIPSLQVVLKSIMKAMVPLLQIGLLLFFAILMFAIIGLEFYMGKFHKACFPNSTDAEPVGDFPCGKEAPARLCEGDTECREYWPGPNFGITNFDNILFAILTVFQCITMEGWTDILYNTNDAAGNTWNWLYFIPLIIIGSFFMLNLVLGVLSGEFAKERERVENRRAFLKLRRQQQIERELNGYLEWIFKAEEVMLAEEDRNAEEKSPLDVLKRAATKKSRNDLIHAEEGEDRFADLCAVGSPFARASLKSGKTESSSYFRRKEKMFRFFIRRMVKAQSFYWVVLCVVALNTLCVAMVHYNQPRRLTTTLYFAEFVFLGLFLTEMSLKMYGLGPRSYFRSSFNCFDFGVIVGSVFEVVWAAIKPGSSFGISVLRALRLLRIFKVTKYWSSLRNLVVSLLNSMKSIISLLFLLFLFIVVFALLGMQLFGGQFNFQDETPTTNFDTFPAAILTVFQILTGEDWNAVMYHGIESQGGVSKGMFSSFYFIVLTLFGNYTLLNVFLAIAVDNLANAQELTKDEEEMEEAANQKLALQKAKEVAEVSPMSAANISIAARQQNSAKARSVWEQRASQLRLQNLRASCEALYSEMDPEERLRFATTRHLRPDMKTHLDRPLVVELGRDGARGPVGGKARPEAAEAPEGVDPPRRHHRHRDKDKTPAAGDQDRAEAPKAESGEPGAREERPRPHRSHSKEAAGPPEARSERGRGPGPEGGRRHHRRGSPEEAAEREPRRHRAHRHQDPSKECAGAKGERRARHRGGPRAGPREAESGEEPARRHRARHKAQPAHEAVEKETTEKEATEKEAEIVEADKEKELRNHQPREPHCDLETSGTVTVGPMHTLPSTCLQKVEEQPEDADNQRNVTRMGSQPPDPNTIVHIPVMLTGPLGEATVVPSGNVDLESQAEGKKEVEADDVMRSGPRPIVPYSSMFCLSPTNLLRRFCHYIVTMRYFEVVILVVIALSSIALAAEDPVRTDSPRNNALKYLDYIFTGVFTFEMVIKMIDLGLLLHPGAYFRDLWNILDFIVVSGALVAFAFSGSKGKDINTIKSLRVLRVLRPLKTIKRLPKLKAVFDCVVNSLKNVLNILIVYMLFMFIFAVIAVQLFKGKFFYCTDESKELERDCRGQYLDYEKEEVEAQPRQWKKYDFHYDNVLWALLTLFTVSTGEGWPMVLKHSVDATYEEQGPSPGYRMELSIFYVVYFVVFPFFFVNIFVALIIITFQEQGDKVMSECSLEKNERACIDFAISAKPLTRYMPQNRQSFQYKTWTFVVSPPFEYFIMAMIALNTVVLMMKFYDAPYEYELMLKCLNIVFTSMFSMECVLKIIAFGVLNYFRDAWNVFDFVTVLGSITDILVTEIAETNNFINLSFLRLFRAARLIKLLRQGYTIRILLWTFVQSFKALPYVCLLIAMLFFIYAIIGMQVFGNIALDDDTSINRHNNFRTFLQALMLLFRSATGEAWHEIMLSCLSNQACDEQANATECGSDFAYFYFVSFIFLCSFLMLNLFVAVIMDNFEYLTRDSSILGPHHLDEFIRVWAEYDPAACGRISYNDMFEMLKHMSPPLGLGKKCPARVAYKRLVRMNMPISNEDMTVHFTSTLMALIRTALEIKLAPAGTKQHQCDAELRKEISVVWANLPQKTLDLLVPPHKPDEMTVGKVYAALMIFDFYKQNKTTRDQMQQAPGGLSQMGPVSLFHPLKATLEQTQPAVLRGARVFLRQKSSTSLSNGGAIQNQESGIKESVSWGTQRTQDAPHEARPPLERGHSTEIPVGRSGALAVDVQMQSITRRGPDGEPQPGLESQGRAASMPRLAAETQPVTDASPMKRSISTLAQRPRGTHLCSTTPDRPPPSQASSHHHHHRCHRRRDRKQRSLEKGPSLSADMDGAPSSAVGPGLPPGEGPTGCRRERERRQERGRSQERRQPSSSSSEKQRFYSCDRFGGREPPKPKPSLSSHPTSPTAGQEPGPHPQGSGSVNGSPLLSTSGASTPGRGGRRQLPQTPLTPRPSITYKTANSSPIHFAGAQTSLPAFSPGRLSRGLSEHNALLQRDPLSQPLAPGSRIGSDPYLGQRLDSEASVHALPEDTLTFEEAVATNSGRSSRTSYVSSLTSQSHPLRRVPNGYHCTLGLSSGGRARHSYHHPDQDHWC", "T2 sequence (Q02410 whole entry)": "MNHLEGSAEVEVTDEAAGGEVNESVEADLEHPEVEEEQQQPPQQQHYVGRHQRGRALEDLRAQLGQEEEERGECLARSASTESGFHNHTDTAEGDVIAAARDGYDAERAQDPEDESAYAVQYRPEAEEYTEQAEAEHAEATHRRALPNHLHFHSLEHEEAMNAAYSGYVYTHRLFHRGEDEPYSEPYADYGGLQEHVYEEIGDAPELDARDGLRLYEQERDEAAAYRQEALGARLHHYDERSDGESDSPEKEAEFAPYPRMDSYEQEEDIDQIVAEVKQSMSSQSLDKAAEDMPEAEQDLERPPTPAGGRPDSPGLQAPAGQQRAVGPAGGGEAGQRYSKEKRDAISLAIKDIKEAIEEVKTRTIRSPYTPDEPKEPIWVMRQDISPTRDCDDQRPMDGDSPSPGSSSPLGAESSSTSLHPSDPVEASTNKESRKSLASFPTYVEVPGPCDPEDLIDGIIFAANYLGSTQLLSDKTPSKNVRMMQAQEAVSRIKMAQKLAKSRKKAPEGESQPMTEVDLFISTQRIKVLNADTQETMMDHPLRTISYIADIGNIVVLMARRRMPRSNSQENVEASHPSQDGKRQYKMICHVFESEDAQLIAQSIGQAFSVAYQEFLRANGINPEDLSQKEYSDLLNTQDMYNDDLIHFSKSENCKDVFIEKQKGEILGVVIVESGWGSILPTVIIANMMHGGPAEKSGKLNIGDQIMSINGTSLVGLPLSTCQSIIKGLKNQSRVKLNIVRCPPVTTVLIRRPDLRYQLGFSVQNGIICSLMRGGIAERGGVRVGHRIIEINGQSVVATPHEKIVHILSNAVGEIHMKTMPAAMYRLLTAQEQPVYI", "type": "protein assay"}, "[7]": {"biological_target": "T2, Voltage-gated N-type calcium channel alpha-1B subunit/Amyloid beta A4 precursor protein-binding family A member 1", "type": "protein assay", "remark": "listed apart in the source"}, "[8]": {"biological_target": "Mu-type opioid receptor (Homo sapiens, UniProt P35372)", "sequence (P35372 whole entry)": "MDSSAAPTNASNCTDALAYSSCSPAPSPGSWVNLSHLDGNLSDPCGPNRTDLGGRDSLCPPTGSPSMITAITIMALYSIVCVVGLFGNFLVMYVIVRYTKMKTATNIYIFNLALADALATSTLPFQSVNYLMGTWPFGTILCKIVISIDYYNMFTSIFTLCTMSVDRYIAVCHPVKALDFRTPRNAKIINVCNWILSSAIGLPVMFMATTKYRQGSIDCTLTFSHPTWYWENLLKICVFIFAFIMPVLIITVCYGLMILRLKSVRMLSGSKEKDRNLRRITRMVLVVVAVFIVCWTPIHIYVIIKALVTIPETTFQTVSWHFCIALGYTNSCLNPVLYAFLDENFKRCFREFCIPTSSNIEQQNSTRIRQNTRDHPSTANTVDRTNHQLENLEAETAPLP", "type": "functional, cell-based"}, "[9]": {"assay": "Luminescence Cell-Based Dose Response HTS to Identify Inhibitors of 5'UTR Stem-Loop Driven Prion Protein mRNA Translation in H4 Neuroglioblastoma Cells. [Related pubchem assays: 1827 (Project Summary), 1813 (Primary HTS)]", "type": "functional"}, "[10]": {"assay": "inhibitors of SNCA 5'UTR-driven reporter translation, confirmation, H4 neuroglioma cells, luminescence (AID 1988)", "type": "functional, cell-based"}, "[11]": {"assay": "inhibitors of firefly luciferase expression or activity, dose response, H4 neuroglioma cells, luminescence (AID 1990)", "type": "functional, cell-based"}, "[12]": {"biological_target": "5-hydroxytryptamine receptor 2A (Mus musculus, UniProt P35363)", "sequence (P35363 whole entry)": "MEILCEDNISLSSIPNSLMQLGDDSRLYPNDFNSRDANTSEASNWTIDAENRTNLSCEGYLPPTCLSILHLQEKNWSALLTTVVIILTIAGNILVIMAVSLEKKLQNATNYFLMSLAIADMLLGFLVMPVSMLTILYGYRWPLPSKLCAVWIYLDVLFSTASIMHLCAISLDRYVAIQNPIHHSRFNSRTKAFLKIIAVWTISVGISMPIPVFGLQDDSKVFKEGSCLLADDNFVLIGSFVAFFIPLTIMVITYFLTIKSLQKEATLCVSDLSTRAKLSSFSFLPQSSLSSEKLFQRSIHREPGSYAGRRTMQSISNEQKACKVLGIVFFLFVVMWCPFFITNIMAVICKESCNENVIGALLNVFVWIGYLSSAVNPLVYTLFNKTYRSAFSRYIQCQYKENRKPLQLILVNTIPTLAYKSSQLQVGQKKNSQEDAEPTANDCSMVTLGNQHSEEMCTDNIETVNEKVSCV", "type": "functional, cell-based"}, "[13]": {"assay": "MC4R antagonists, dose response, counter-screen for LGR2 antagonist project, cell-based, plate reader, cherry pick (AID 743444);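 note: transfected HEK 293 cells stimulated with alpha-MSH peptide; potency of inhibitors of the alpha-MSH evoked signal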", "type": "functional"}, "[14]": {"assay": "HEK293 cell cytotoxicity, dose response, cytotoxicity control, plate reader, cherry-picked samples (AID 743446)", "type": "functional, cell-based"}, "[15]": {"assay": "cytotoxicity in HEK-293T cells, dose response, cytotoxicity control for TCR NF-kB inhibitor project, luminescence, T-cell screen hits (AID 489026);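 note: cells exposed to compound about 14 hours before the viability readout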", "type": "functional, cell-based"}, "[16]": {"biological_target": "T3, Small ubiquitin-related modifier 1 (Homo sapiens, UniProt P63165)", "T3 sequence (P63165 whole entry)": "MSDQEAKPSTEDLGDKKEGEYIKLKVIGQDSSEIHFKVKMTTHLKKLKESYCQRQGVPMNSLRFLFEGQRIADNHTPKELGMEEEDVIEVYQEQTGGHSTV", "assay": "inhibitors of SUMO1 partner interactions, dose response, biochemical, FRET (AID 624383)", "type": "functional", "settings": "read-out: IC50_Mean"}, "[17]": {"biological_target": "T3, Small ubiquitin-related modifier 1", "assay": "inhibitors of SUMO1 peptide binding, dose response, biochemical, fluorescence polarization, uHTS hits (AID 624382)", "type": "functional", "settings": "read-out: IC50_Mean"}, "[18]": {"biological_target": "Heat shock protein HSP 90-alpha (Homo sapiens, UniProt P07900)", "type": "functional, organism-based"}}, "note": "Active and inactive are the calls of the source."}
{"smiles": "O=C(c1ccc(CS(=O)(=O)c2ccccc2)o1)N1CCC2(CC1)OCCO2", "values": [{"measurement": "IC50", "setting": "[1]", "result": "4.05 µM (not active)"}]}
{"smiles": "C=CCn1c(COc2cccc(C)c2)nnc1SCC(=O)NC(=O)NCc1ccco1", "values": [{"measurement": "IC50", "setting": "[2]", "result": "14.8 µM (active)"}]}
{"smiles": "Nc1ccccc1N/C=C1\\C(=O)NC(=O)N(CCC2=CCCCC2)C1=O", "values": [{"measurement": "IC50", "setting": "[2]", "result": "> 50 µM (not active)"}, {"measurement": "AC50", "setting": "[3]", "result": "81.2 µM (active)"}, {"measurement": "AC50", "setting": "[4]", "result": "28.2 µM (active)"}]}
{"smiles": "COc1ccc(NC(=O)CSc2nn3c(=O)c(C)nnc3s2)cc1", "values": [{"measurement": "IC50", "setting": "[5]", "result": "8.25 µM (active)"}]}
{"smiles": "CCn1ccnc1CNCc1cn(-c2cc(C)ccc2C)nc1-c1ccccc1", "values": [{"measurement": "IC50", "setting": "[5]", "result": "11.8 µM (active)"}]}
{"smiles": "CC1=C(C(=O)O)N2C(=O)C(NC(=O)c3ccccc3Cl)C2SC1", "note": "(stereo unspecified)", "values": [{"measurement": "IC50", "setting": "[6]", "result": "0.749 µM (active)"}, {"measurement": "IC50", "setting": "[7]", "result": "> 50 µM (inactive)"}]}
{"smiles": "Cc1cccc(OCC(O)CN2CCN(c3ccccn3)CC2)c1C", "note": "(stereo unspecified)", "values": [{"measurement": "EC50", "setting": "[8]", "result": "92.5 µM (inactive)"}, {"measurement": "EC50", "setting": "[9]", "result": "> 120 µM (not active)"}, {"measurement": "EC50", "setting": "[10]", "result": "> 120 µM (not active)"}, {"measurement": "EC50", "setting": "[11]", "result": "> 120 µM (not active)"}, {"measurement": "EC50", "setting": "[12]", "result": "25.4 µM (inactive)"}]}
{"smiles": "CN(c1ccccc1)S(=O)(=O)c1cccc(NC(=O)c2cc(=O)c3ccccc3o2)c1", "values": [{"measurement": "AC50", "setting": "[13]", "result": "38.2 µM (active)"}, {"measurement": "AC50", "setting": "[14]", "result": "> 52 µM (inactive)"}]}
{"smiles": "COc1ccc(CN2CCN(C(=O)c3ccco3)CC2)cc1", "values": [{"measurement": "EC50", "setting": "[8]", "result": "92.5 µM (inactive)"}, {"measurement": "EC50", "setting": "[12]", "result": "1.53 µM (active)"}]}
{"smiles": "COc1cc(-c2noc(C)c2/C=C/c2cccc([N+](=O)[O-])c2)cc(OC)c1OC", "values": [{"measurement": "IC50", "setting": "[15]", "result": "68.5 µM (inactive)"}]}
{"smiles": "O=C(c1ccco1)N1CCN(Cc2ccccc2F)CC1", "values": [{"measurement": "EC50", "setting": "[8]", "result": "92.5 µM (inactive)"}, {"measurement": "EC50", "setting": "[12]", "result": "7.48 µM (active)"}]}
{"smiles": "O=C(COC(=O)c1ccc(Cl)c(S(=O)(=O)N2CCOCC2)c1)Nc1ccc2[nH]c(O)nc2c1", "values": [{"measurement": "IC50", "setting": "[16]", "result": "15.8 µM (active)"}, {"measurement": "IC50", "setting": "[17]", "result": "> 66.6 µM (inactive)"}]}
{"smiles": "CCOC(=O)c1ccc(N2C(=O)C=CC2=O)cc1", "values": [{"measurement": "IC50", "setting": "[6]", "result": "6.05 µM (active)"}, {"measurement": "AC50", "setting": "[18]", "result": "0.691 µM (active)"}, {"measurement": "IC50", "setting": "[7]", "result": "2.46 µM (active)"}]}
